Test results reported in ChEMBL document CHEMBL5674860, “Optimized Dual-Glo Assay to identify co-culture-induced drug vulnerabilities in 3D CRC models” (2024).
Square brackets hold non-standard residues; d marks the D form. Peptide text beside a SMILES is read from it. Arg(Me) = CNC(=N)NCCC[C@H](N)C(=O)O; d3Pal = N[C@H](Cc1cccnc1)C(=O)O; azaGly = NNC(=O)O

Experiments:
Type in all cases: functional, Homo sapiens
Set-up in all cases: dose or concentration left out as unconfirmed
Colon cancer organoid [1] = assay: Optimized Dual-Glo assay to identify co-culture induced drug vulnerabilities using donated chemical probes and chemogenomics kinase set in O14 CRC organoid and F14 CAF mono and co-culture. […] Cell viability is reported both mono and co-culture models.
Colon cancer organoid [2] = assay: Optimized Dual-Glo assay to identify co-culture induced drug vulnerabilities using donated chemical probes and chemogenomics kinase set in O20 CRC organoid and F20 CAF mono and co-culture. […] Cell viability is reported both mono and co-culture models.
Colon cancer organoid [3] = assay: Optimized Dual-Glo assay to identify co-culture induced drug vulnerabilities using donated chemical probes and chemogenomics kinase set in O06 CRC organoid and F06 CAF mono and co-culture. […] Cell viability is reported both mono and co-culture models.
[4] = Culture type Co-Culture, Transduced with Lucferase2-P2A-EGFP lentivirus
[5] = Culture type Co-Culture, Transduced with Renilla-dsRed lentivirus
[6] = Culture type Mono-Culture, Transduced with Lucferase2-P2A-EGFP lentivirus
[7] = Culture type Mono-Culture, Transduced with Renilla-dsRed lentivirus

Compound	Cell Viability (Colon cancer organoid [1]; [4]) [%]	Cell Viability (Colon cancer organoid [1]; [5]) [%]	Cell Viability (Colon cancer organoid [1]; [6]) [%]	Cell Viability (Colon cancer organoid [1]; [7]) [%]	Cell Viability (Colon cancer organoid [2]; [4]) [%]	Cell Viability (Colon cancer organoid [2]; [5]) [%]	Cell Viability (Colon cancer organoid [2]; [6]) [%]	Cell Viability (Colon cancer organoid [2]; [7]) [%]	Cell Viability (Colon cancer organoid [3]; [4]) [%]	Cell Viability (Colon cancer organoid [3]; [5]) [%]	Cell Viability (Colon cancer organoid [3]; [6]) [%]	Cell Viability (Colon cancer organoid [3]; [7]) [%]
COc1cc(C#N)ccc1S(=O)(=O)Nc1ccc2c(c1)cc(C)c(=O)n2C	68.1001	108.689	83.6696	112.833	96.6614	124.149	82.6901	95.7551	94.9001	111.598	60.6858	105.903
Cc1c(NC(=O)COc2ccc(Cl)cc2C(=O)c2cc(F)cc(C(F)(F)F)c2)ccc(C(=O)O)c1F [BI 2540]	79.1363	91.7704	120.435	101.06	66.158	145.555	86.1051	111.497	131.143	97.0984	110.069	102.946
Cc1c(C(=O)O)cc(-c2ccc(C3CCNCC3)cc2)c2ccc(-c3ccc(C(F)(F)F)cc3)cc12.Cl	89.0162	119.102	89.8992	99.4723	115.549	99.1911	103.532	103.975	69.2582	93.9723	78.1885	87.9203
COc1c(C)cc(NC(=O)c2nn(Cc3ccc(F)cc3)c3c2CN(C(=O)c2ccc[nH]2)C[C@]3(C)C(N)=O)cc1C	89.068	129.679	87.8638	102.007	106.451	95.1299	138.387	102.921	66.5012	112.674	87.4341	110.624
CN(C)[C@H]1CN(C2CCc3cccc(F)c32)C[C@@H]1c1ccc(N2CCN(S(C)(=O)=O)CC2)cc1 (stereo partly specified)	85.2853	124.227	108.249	110.303	31.8041	145.189	62.1102	96.7919	82.1891	127.07	99.7479	137.803
CN(C)C(=O)Cn1cc(-c2ccc(-c3cncc4ccccc34)cc2)cn1	86.7541	14.5396	75.1396	23.2323	97.1634	25.8647	131.343	32.5119	83.3121	47.4852	74.4895	24.5354
Cl.O=C(O)c1cc(-c2ccc(C3CCNCC3)cc2)c2ccc(-c3ccc(C(F)(F)F)cc3)cc2c1	74.9682	122.124	85.098	99.5367	105.826	101.384	71.4178	87.2658	107.895	117.47	95.8495	93.2112
CCCCN(CCCC)C(=O)CN1C[C@@H](c2cc(OC)c3c(c2)OCO3)[C@H](C(=O)O)[C@H]1CC(C)(C)CCC [A-545]	105.072	96.9928	119.694	109.859	123.099	97.2502	106.602	112.439	124.297	133.906	113.751	92.0951
COc1ccc2c(O[C@@H]3C[C@H]4C(=O)N[C@]5(C(=O)O)CC5/C=C\CCCCC[C@H](NC(=O)OC5CCCC5)C(=O)N4C3)cc(-c3csc(NC(=O)C(C)C)n3)nc2c1C (stereo partly specified) [BI 1230]	105.071	113.929	106.581	104.774	95.5192	162.279	102.506	120.15	113.549	148.301	94.169	100.65
CNC(=N)NCCC[C@H](NC(=O)[C@H](CC(C)C)NC(=O)NNC(=O)[C@H](Cc1ccccc1)NC(=O)[C@H](CO)NC(=O)[C@H](CC(N)=O)NC(=O)[C@@H](Cc1cccnc1)NC(=O)[C@H](N)Cc1ccc(O)cc1)C(=O)NCC(N)=O [KISS1-543] (H-[dY][d3Pal]NSF[azaGly]L[Arg(Me)]G-NH2)	118.116	72.7172	93.1075	78.975	101.104	120.489	73.3632	97.5472	103.647	101.302	85.2773	99.9886
Cc1cc(F)c(C(=O)Nc2cccc(-c3nncn3C(C)C)n2)cc1-n1cnc(C2CC2)c1 [SELONSERTIB]	131.466	127.666	127.2	83.0493	141.674	89.2485	97.5113	87.9562	89.6649	105.018	105.834	92.1767
O=C1CCc2cc(Nc3cc(OC4CCOCC4)c([N+](=O)[O-])cc3Cl)ccc2N1	95.0687	106.674	142.925	117.869	150.133	114.972	136.194	114.49	112.978	126.115	116.283	106.249
Cn1cnc2c(F)c(Nc3ccc(Br)cc3Cl)c(C(=O)NOCCO)cc21 [SELUMETINIB]	41.0506	90.7653	35.0637	76.2393	54.0546	152.417	80.7355	77.3788	107.697	90.3962	52.8036	90.0191
